# Assay results as given in US5922756A, “Method of inhibiting nitric oxide synthase” (priority 1998, dated 1999).
# pEC50, pKi: −log10 of the molar value. Where two headings read alike, the source gives them in different places.
# Experiments:
# Murine iNOS = molecular target: T1, Murine iNOS (Mus musculus, UniProt P29477); experiment: Citrulline assay for iNOS enzyme activity ([3H]arginine to [3H]citrulline); format: biochemical; conditions: for remaining activity at 800 µM: read-out: citrulline formation (% of control)
# T1 construct: purchased Cayman
# Experimental: Murine iNOS was extracted from the RAW 264.7 murine macrophages (from the American Type Culture Collection). The cells were stimulated with 20 units/mL cf IFNγ and 0.5 μg/mL LPS, incubated for 4 hr, and then harvested. The washed cells were lysed in 50 mM MOPS buffer (pH 7.0) which contained 1 mM EGTA, 100 mM NaCl, 0.1% 3-[(3-cholamidopropl)dimethylammonio]-2-hydroxy-1-propanesulfonate (CHAPSO), 0.2 mM phenylmethylsulfonyl fluoride, […], and 1 mM leupeptin. After passing through Sephadex G-100 (Pharmacia) to remove arginine, NADPH, and unbound tetrahydrobiopterin, the supernatant was concentrated by ultrafiltration using Centricon 30 microconcentrators (Amicon) (Forstermann et al. 1994; Wolff and Gribin 1994). Murine iNOS, 100,000 g fraction, was also purchased from Cayman.
# (§1) Enzyme inhibition studies for iNOS were conducted in 50 mM HEPES buffer (pH 7.4) containing 1 mM calcium chloride, 1 mM magnesium acetate and […]. [^3 H]arginine (New England Nuclear), tetrahydrobiopterin (Biomol), and EGCG were added at the indicated concentrations. Reactions were terminated by the addition of AG 50WX8 resin (Bio-Rad) in HEPES-EDTA buffer (pH 5.5). Enzyme activity was measured by monitoring the conversion of [^3 H]arginine to [^3 H]citrulline (Hevel and Marletta 1994). Reactions were allowed to occur at 37° C. for 10-20 min since time-course analyses had shown that the reaction was linear under these conditions. Background was determined by the level of radioactivity in a reaction mixture from which iNOS was omitted. This amount was subtracted from the level detected in the experimental samples. Enzyme activity, i.e. the amount of citrulline formed, was deduced from the specific activity of the [^3 H]arginine.
# Purification of tea catechin polyphenols was performed according to Xie et al. (1993). Enzyme preparation and assay were followed as described in the Methods section of Example 2.
# GAPDH mRNA expression = experiment: GAPDH (housekeeping gene) mRNA expression by RT-PCR in activated mouse peritoneal cells; format: cell-based; conditions: EGCG 1-10 μM, housekeeping gene control
# Experimental: (§2) Non-elicited peritoneal exudate cells were obtained from BALB/c mice (Jackson Laboratories) and were cultured at 10^6 /mL as described by Chan et al. (1995). They were stimulated by the addition of 0.01 μg/mL LPS from Salmonella typhosa (Difco Laboratories) and 10 units/mL of IFNγ. At 4 hr after stimulation, total RNA was isolated with a Purescript RNA isolation kit (Gentra). RT-PCR was performed to determine the level of iNOS gene expression. From each sample, 300 ng of RNA was reverse-transcribed using 100 units MMLV reverse transcriptase, 20 units RNase inhibitor, 0.6 mM dNTP, and 0.4 mM Oligo(dT16) (Promega). Then PCR analyses were performed on the aliquots of the cDNA preparations for detecting iNOS and glyceraldehyse 3-phosphate dehydrogenase (GAPDH) gene expression. The reactions occurred in a 50 μL volume, for 23 cycles, with 10 mM Tris-HCl, pH 8.3, 50 mM KCl, 1.5 mM MgCl2, 0.3 mM dNTP, 2.0 units of Taq DNA polymerase, and 50 pmol of 5' and 3' primers. Murine iNOS and GAPDH 5' and 3' primers were purchased from Clontech and used according to manufactures protocols. The products were then separated on 1.6% agarose gel, stained with ethidium bromide, and the intensity of the bands was determined by scanning (Siebert and Kellogg 1995).
# [1] = molecular target: T2, neuronal nitric oxide synthase (nNOS) (Mus musculus, UniProt Q9Z0J4); experiment: Citrulline assay for neuronal NOS enzyme activity (mouse brain 100,000 g fraction); format: biochemical; conditions: 0.135 μM arginine, 125 μM tetrahydrobiopterin, read-out: nNOS citrulline formation inhibited by (% compared with control)
# T2 construct: fresh brains from BALB/c mice were homogenized; from tissue; host or cells: brain of BALB/c mice, 100,000 g fraction passed through Sephadex G-100
# Experimental: as §1
# Purification of EGCG was performed according to Xie et al. (1993). Neuronal NOS sample preparation and enzyme activity assay were described in the Methods section of Example 2, with the following modifications. For nNOS, fresh brains from BALB/c mice were homogenized in a 5-fold volume of 50 mM Tris-HCl (pH 7.5) that contained 1 mM EDTA, 5 mM 2-mercaptoethanol and then were centrifuged at 100,000 g for 1 hr, and then the sample was passed through the Sephadex G-100 column. For the nNOS enzyme assay, 5 μM flavin mononucleotide, 5 μM flavin adenine dinucleotide, 10 μg/mL calmodulin (Calbiochem) and 1.25 mM DTT were incorporated in the reaction mixture.
# NO production = conditions: LPS- and IFNγ-induced mouse peritoneal cells; Chan et al. 1995; cited from earlier work
# iNOS mRNA expression = experiment: iNOS gene expression by relative RT-PCR in LPS- and IFNγ-activated mouse peritoneal cells; format: cell-based; conditions: 4 hr after LPS + IFNγ stimulation, read-out: iNOS mRNA expression reduced to (% of control, iNOS/GAPDH ratio)
# Experimental: as §2
# [2] = 800 μM compound, 0.270 μM arginine, 125 μM tetrahydrobiopterin, 126 pmol/min iNOS
# [3] = read-out: citrulline formation inhibited to (% of control)
Structure (SMILES),remaining activity at 800 µM (Murine iNOS; [2]),reduction in mRNA expression of GAPDH (GAPDH mRNA expression),inhibition at 200 µM ([1]; 200 μM EGCG),inhibition at 400 µM ([1]; 400 μM EGCG),inhibition at 600 µM ([1]; 600 μM EGCG),pEC50 (Murine iNOS),pKi (Murine iNOS),"pattern of inhibition with respect to substrate arginine (Dixon plot) (Murine iNOS; 100-600 μM EGCG, 0.068-0.270 μM arginine)","pattern of inhibition with respect to cofactor tetrahydrobiopterin (Dixon plot) (Murine iNOS; 100-600 μM EGCG, 12-125 μM tetrahydrobiopterin)",remaining activity at 800 µM (Murine iNOS),inhibition at 50 µM (Murine iNOS; [3]),inhibition at 250 µM (Murine iNOS; [3]),inhibition at 500 µM (Murine iNOS; [3]),inhibition at 750 µM (Murine iNOS; [3]),NO production measured by nitrite accumulation in the culture medium (NO production),mrna remaining at 1 µM (iNOS mRNA expression; 1 μM EGCG),mrna remaining at 3 µM (iNOS mRNA expression; 3 μM EGCG),mrna remaining at 5 µM (iNOS mRNA expression; 5 μM EGCG),mrna remaining at 10 µM (iNOS mRNA expression; 10 μM EGCG)
"O=C(O[C@@H]1Cc2c(O)cc(O)cc2O[C@@H]1c1ccc(O)c(O)c1)c1cc(O)c(O)c(O)c1 [ECG, epicatechin-gallate]",68%,–,–,–,–,–,–,–,–,–,–,–,–,–,–,–,–,–,–
"Oc1cc(O)c2c(c1)O[C@H](c1cc(O)c(O)c(O)c1)[C@H](O)C2 [EGC, epigallocatechin]",96%,–,–,–,–,–,–,–,–,–,–,–,–,–,–,–,–,–,–
"O=C(O[C@@H]1Cc2c(O)cc(O)cc2O[C@@H]1c1cc(O)c(O)c(O)c1)c1cc(O)c(O)c(O)c1 [EGCG, Epigallocatechin-3-gallate]",–,not observed,79%,51%,56%,3.82,3.89,competitive pattern of inhibition,competitive manner,62%,85%,40%,27%,14%,reduces NO production,82%,74%,41%,14%
